“Also recorded” adds a separate entry of the source.
Key:
retina of mice = experiment: Determination of retinopathy: histological analysis of the retina; assay type: in vivo; details: HCQ 10 mg/kg or CB137 5, 10 and 15 mg/kg, 5 times weekly for 62 days (FIGS. 3 and 4)
Procedure: Histology: 7-week-old mice are injected with 10 mg/kg HCQ or 5, 10 and 15 mg/kg of the CB137 analog 5 times weekly for a period of 62 days. After assigning them a number, the mice are randomized according to their weight and treatment. The mice are divided in groups of 5 in cages, one mouse being treated with the carrier, one with HCQ 10 mg/kg, one with CB137 5 mg/kg, one with CB137 10 mg/kg and one with CB137 15 mg/Kg. The mice are housed in an environment maintained at a temperature of 22° C., 35-55% humidity and with 12-hour cycles of light/darkness.
At the end of the experiment, the mice are euthanized by cervical dislocation. The eyeballs are isolated and stored in a solution containing 4% paraformaldehyde, 5% glutaraldehyde and 0.1 M sodium cacodylate overnight at 4° C. The samples are washed, dehydrated and embedded in paraffin. The 4-μm retinal sections are stained with 1% toluidine blue followed by 1% methylene blue. The retinal toxicity of the samples is then determined by analysis of the sections under microscope.

myeloperoxidase (MPO) = molecular target: T1, myeloperoxidase (MPO) (Homo sapiens, UniProt P05164); experiment: Surface plasmon resonance (Biacore 3000) affinity on MPO; assay type: binding; details: SPR at 25° C.
T1 construct: purchased
T1 sequence (P05164 49-745): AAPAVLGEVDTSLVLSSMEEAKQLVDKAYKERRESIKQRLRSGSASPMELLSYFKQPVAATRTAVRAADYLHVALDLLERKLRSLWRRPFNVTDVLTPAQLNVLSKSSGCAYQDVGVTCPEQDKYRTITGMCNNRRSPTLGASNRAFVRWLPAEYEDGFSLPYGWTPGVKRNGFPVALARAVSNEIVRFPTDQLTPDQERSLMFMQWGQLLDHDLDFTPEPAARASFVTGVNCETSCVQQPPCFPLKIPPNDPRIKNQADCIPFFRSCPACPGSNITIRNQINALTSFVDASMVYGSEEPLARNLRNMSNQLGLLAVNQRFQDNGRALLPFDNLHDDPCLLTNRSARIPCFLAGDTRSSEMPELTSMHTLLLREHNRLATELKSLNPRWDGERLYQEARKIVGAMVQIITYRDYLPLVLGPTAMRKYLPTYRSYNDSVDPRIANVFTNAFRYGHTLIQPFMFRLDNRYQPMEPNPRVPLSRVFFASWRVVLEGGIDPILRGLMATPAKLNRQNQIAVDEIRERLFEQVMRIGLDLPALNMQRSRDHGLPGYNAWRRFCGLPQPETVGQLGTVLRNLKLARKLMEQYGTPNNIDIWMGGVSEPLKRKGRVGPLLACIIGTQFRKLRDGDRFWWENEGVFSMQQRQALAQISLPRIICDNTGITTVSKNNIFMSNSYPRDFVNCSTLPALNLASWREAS
Procedure: Using the surface plasmon resonance technology (Biacore 3000), the interaction constants between HCQ analogues (HCQa) and myeloperoxidase (MPO) targets and αB-crystalline (αB-C) were measured at 25° C. according to 12 different series of experiments. First, HCQ analogues at five different concentrations (10^−6 to 10^−8 M) were injected at a rate of 10^−6 L/min for 250 s on the MPO and αB-C targets as well as on the ERK1 and ERK2 controls, followed by a dissociation phase of 150 s.
The kinetic parameters were measured using the BIAevaluation 4.1 software. The set of resonance unit values obtained with the controls were subtracted from those obtained with MPO and αB-C to compensate for non-specific bonds.
The differences in Kd values for the myeloperoxidase (MPO) and αB-crystalline (αB-C) enzymes in Tables 1 and 2 are due to the variability of commercial batches. Nevertheless, the difference between the Kd of the compounds HCQ and CB137 remains identical according to these two tests.
Analysis of the compounds in the form of sulphate salts according to the method described above: […]

[1] = system: C57Bl/6 mice, pulmonary vasculitis induced by immune complexes; experiment: Pulmonary vasculitis induced by immune complexes: histological analysis of lung sections; assay type: in vivo; details: per os before induction; HCQ 10 mg/kg, CB137 10, 30 or 100 mg/kg (FIG. 6)
Procedure: Female C57Bl/6 strain mice from the Jackson Laboratory, 8-10 weeks old and weighing about 20 g, are used in all experiments. The mice are maintained at a temperature of 23° C.±1° C. with 12-hour light/dark cycle. Mice have access to water and food ad libitum and are housed at least one week before the beginning of any experiments.
A retro-orbital blood sampling was performed using capillaries containing heparin on mice anesthetized with isoflurane the day before the manipulation. The next day, the mice were anesthetized with a mixture of ketamine and xylasin (90 mg/kg and 125 mg/kg, respectively). The immune IgG complex is induced in the lungs by intratracheal instillation of 0.5 mg of anti-BSA rabbit antibody (MP Biomedicals, Strasbourg, France) and by the administration of 0.5 mg per mouse of BSA antigen in the caudal vein (Warner et al., 2001 and Warren et al., 1989). The specified treatment (PF-1355, CB137 or solvent alone) is administered enterally. The animals are euthanized 4 hours after intratracheal instillation. […]
The lung sections are examined under a light microscope (Axio LabA1 by Zeiss brand) to assess the intensity of the neutrophil influx and the level of hemorrhage, and to identify the structural alterations. A minimum of 10 fields at 400× magnification is analyzed per animal. […]

[2] = Table 2, compounds in the form of sulphate salts

| SMILES | retinal lesions (histology) (retina of mice) | Kd (myeloperoxidase (MPO); Table 1) [µM] | Kd (myeloperoxidase (MPO); [2]) [µM] | inhibition of pulmonary vasculitis / pulmonary inflammation induced by immune complexes (lung sections) [1] |
| --- | --- | --- | --- | --- |
| CCN(CCO)CCCC(C)Nc1c(Cl)cnc2cc(Cl)ccc12 (centres unmarked) [CB137] | does not induce more lesions than in the control mice | 0.00659 | 0.06 | inhibiting pulmonary vasculitis; also recorded: limits pulmonary inflammation |
| CCN(CCO)CCCC(C)Nc1ccnc2cc(Cl)ccc12 (centres unmarked) [Commercial HCQ, hydroxychloroquine] | induces retinal lesions | 0.71 | 4 | inhibiting pulmonary vasculitis |
